The subject of test [1] is HME-RhoC cells. Briefly: MTT cell viability and caspase-3/8 assays. Type of test: cell-based, human. The source says:
FIG. 25. […] (B) Caspase-3/8 assay: the apoptotic activity of sample cells treated with the apoptotic inducer was set to be 100%, and other results were then expressed as normalized values against the mean value associated with the treatment with the apoptotic inducer. For both (A) and (B), all values represent the mean values and standard error values from triplicate measurements.

Test [2] concerns the target Rac1 (Homo sapiens, UniProt P63000). Briefly: Co-IP ESI-MS of thioguanine nucleotide disulfide adduct in T cells. The arrangement: endogenous in cells. The following applies: for thioguanine nucleotide-Rac1 disulfide adduct: activated T cells, FIGS. 21, 27. Type of test: cell-based. The procedure:
FIG. 21. Detection of 6-TGNP adduct from A7r5 and T cells. Experimental procedures using A7r5 (A and B) and T (C and D) cells, respectively, were identical to those of the experiments described in FIG. 19 and previous studies (Tiede et al. J. Clin. Invest. 111, 1133-1145 (2003); and Poppe et al. J. Immunol. 176, 640-651 (2006)). The cell extract was incubated with a monoclonal RhoA antibody (A and B) or a Rac1 antibody (C and D) coupled with resin. Resin was collected by centrifugation (5,000×g, 10 min), which was suspended in 50% methanol:0.1% formic acid. The protein portion was separated by brief centrifugation (3,000×g for 5 min), resuspended in a buffer containing 10 mM EDTA and 5 mM phosphate (pH 7.5), digested with trypsin for 10 h, and analyzed with MS. The MS peak at 1476.6 Da represents peptide-6-TGDP adduct; TC^20LLIVFSK-6-TGDP.
FIG. 27. Detection of 8-TGNP adduct from T and A7r5 cells. […] The indicated MS peak at 1476.6 Da represents peptide-8-TGDP adduct; TC^20LLIVFSK-8-TGDP (SEQ ID NO:4). The molecular weight of the peptide-8-TGDP adduct is exactly the same as that of the peptide-6-TGDP adduct.

Test [3] deals with MLC. Briefly: MLC phosphorylation in A7r5 cells. Type of test: cell-based, rat. The method, then: (§1) FIG. 20. Determination of RhoA activity and MLC phosphorylation. […] Cell lysates in a buffer containing 1% NP-40, 10 mM EDTA, and 20 mM TrisHCl (pH 7.4) were centrifuged (50,000×g, 20 min) to remove solid matter. (A) The soluble cell extract was then used to perform Western blot analyses for RhoA and the MLC. This cell extract also was used for the co-IP-based ESI-MS analysis (FIG. 6). (B) A RhoA activity assay was colorimetrically determined using cell extract; the assay was performed with the RhoA G-LISA Activation Assay Kit (Cat. No. BK124) (Denver, Colo.). To examine the level of phosphorylation of the MLC, cells were cultured with ˜5 μCi of ^32P in 1 mL of phosphate-free DMEM. The collected cell extract was nutated with resin coupled with a macrophage myosin II antibody at 4° C. for 5 h. Resin was collected by centrifugation, and proteins bound to the resin were washed and eluted with a buffer (80° C.) containing […], 5 mM DTT, and 10 mM TrisHCl (pH 6.8). The immunoprecipitates were then analyzed by SDS-PAGE and autoradiographed. The values of RhoA activity and the MLC phosphorylation determined from untreated cells were set at 100%. […] The data represented in the figure represent the mean values of triplicate measurements, and the vertical error bar indicates standard errors.

In test [4] the test system is HME-RhoC cells. The test can be described thus: Apoptosis / cell population of cells treated with thiopurines. Particulars: for cells that underwent apoptosis within a day: thiopurine 1 μM. Type of test: cell-based, human.
Description: RhoC-overexpressed mammary epithelium (HME-RhoC) cells were used to examine the effect of 6-TG and/or a redox agent on RhoC.
Test [5] concerns HME-RhoC cells. Briefly: Matrigel invasion (cell motility) assay. Format: cell-based, human. The procedure:
FIG. 5. Determination of cell invasiveness in the presence and absence of 6-thiopurine and/or a redox agent. The top chamber of a Transwell filter (6.5 mm with 8 μm pores, Costar; Corning, N.Y.) was coated with a 10 μL aliquot of 10 mg/mL Matrigel (BD Biosciences, Bedford Mass.), and the lower chamber of the Transwell was filled with either serum-free or serum-containing media. Sample cells (e.g., 6-TG-resistant HME-RhoC cells) were prepared to resuspend cells in a serum-free medium with 0.1% BSA at a concentration of 4×10^5 cells/mL. At this point, neither 6-thiopurine nor GSNO were added to the cells. The sample cells (0.5 mL) were added to the top chamber of a Transwell filter and were incubated for 24 h at 37° C. in a 10% CO2 incubator. The Transwell filters were fixed with methanol, stained with H&E, and cells in the serum-containing samples were counted. The number of cells that had invaded the serum-free medium-containing lower chambers was used as a control background. Results are given as percent invasion over that seen in HME-RhoC cells (100%) and represent mean and standard error values from triplicate measurements.
FIG. 11. Determination of cell invasiveness in the presence and absence of […] and/or a redox agent. […] The number of cells that had invaded the serum-free medium-containing lower chambers was used as a control background. Results are given as percent invasion over that seen in HME-RhoC cells (100%) and represent mean and standard error values from triplicate measurements.
FIG. 14. Determination of cell invasiveness in the presence and absence of thiopurines and/or redox agents. […] Western blot analysis representing the total expression of RhoC in these cells also is shown. (B) Experimental procedures for the determination of the time-dependent motility of cells using the QCM Cell Invasion Assay kit in the presence and absence of 6-TG and DETA/NO are described elsewhere herein.
The top chamber of a Transwell filter (6.5 mm with 8 μm pores, Costar; Corning, N.Y.) was coated with a 10 μL aliquot of 10 mg/mL Matrigel, and the lower chamber of the Transwell was filled with either serum-free or serum-containing media. Sample cells were prepared to resuspend cells in a serum-free medium with 0.1% BSA at a concentration of 4×10^5 cells/mL. […] The Transwell filters were fixed with methanol, stained with haematoxylin and eosin, and cells in the serum-containing samples were counted. The number of cells that had invaded the serum-free, medium-containing lower chambers was used as a control background.

The target of test [6] is T1, RhoA (Rattus norvegicus, UniProt P61589).
T1 construct: endogenous in cells; host or cells: A7r5 cells (rat aortic vascular smooth muscle)
T1 sequence (P61589 whole entry): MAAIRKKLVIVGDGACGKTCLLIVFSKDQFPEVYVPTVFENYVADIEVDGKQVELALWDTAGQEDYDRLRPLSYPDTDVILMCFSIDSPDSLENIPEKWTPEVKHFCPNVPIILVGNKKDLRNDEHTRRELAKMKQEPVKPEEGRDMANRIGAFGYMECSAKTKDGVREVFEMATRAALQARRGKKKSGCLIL
Briefly: RhoA expression (Western) and RhoA G-LISA activity in A7r5 cells. Type of test: cell-based. The method, then:
as §1

Where [7] appears, read: 6-TG plus DETA/NO 10 μM, FIG. 20B.

The structures appear in SMILES notation.

The record followed here is patent publication US8729047B2, “Compositions for inhibiting redox-sensitive GTPases” (Board of Regents, The University of Texas System, priority 2010, dated 2014).

As for `Nc1nc2nc[nH]c2c(=S)[nH]1` [6-TG, 6-thioguanine], in test [1] (6-TG), the “apoptotic effect (caspase, FIG. 25B)” value is given as “minimal”. Further, the “viability and caspase activity” value in test [1] (6-TG and DETA/NO, FIG. 25) is given as “minimally affected”. For the same compound, the “cell viability (MTT, FIG. 25A)” value in test [1] (6-TG for 3 days) is listed as “minimally affected”. The “MS peak representing 6-TGNP-Rac1 adduct” value in test [2] (T cells, both 6-TG and NO, intensity not truly quantitative) is given as “increased”. Moreover, the “thioguanine nucleotide-Rac1 disulfide adduct” value in test [2] is reported as “has been identified”. In test [3] (setting [7]), the “dephosphorylated form of the MLC” value is “synergistically increases”. Moreover, the MLC dephosphorylation result in test [3] (6-TG, after 3 days, FIG. 20B) is “large portion of the MLC in A7r5 cells was observed to have been dephosphorylated”. For the same compound, in test [4] (6-TG 1 μM), the “cells persistently resisting additional treatments (of the initial cells)” value is given as 20%-25%. Moreover, in test [4], the “cells that underwent apoptosis within a day” value is on record as around 80%. Moreover, the cell motility result in test [5] (6-TG 1 μM alone, three or more consecutive days, FIG. 14A) is reported as “gradual but significant diminution of cell motility”. Also, the invasive cell motility result in test [5] (6-TG 1 μM with DETA/NO (or GSNO) 10 μM, three days, FIG. 14A) is listed as “complete termination of the invasive cell motility”. In test [6] (6-TG 1 μM, within 3 days, FIG. 20B), the RhoA inactivation entry was “significant portion of RhoA was inactivated”. In addition, the “fraction of inactive RhoA” value in test [6] (setting [7]) is “synergistically increases the fraction of inactive RhoA”. In addition, in test [6] (presence or absence of 6-TG, FIG. 20A), the “cellular expression levels of RhoA and of the MLC” value was “not changed”.
On to `Nc1nc2[nH]c(S)nc2c(=O)[nH]1` [8-TG, 2-amino-8-mercapto-1H-purin-6(9H)-one], for which the “viability of cells treated with 8-TG-redox agent” value in test [1] (8-TG for a week followed by NO donor) is on record as “almost the same as that of the untreated HME-RhoC cells”. Further, the “thioguanine nucleotide-Rac1 disulfide adduct” value in test [2] is “biologically inactive 8-TGNP-Rac1 disulfide adduct”. Also, the “screen of 6-TP isomers on MLC phosphorylation” value in test [3] (not shown) is “dephosphorylates the MLC”. In test [4] (8-TG 1 μM), the “delayed minor apoptosis over the course of a week of treatment” value is around 5%. In addition, the “cells that underwent apoptosis within a day” value in test [4] is reported as “less than 5%”. The “invasive mobility after 8-TG followed by NO donor” value in test [5] (8-TG for a week, then DETA/NO or GSNO 10 μM every 20 or 8 h) is listed as “virtually all of the invasive mobility of HME-RhoC cells was immediately terminated”. In test [5] (in conjunction with a redox agent), the “termination of RhoC-mediated cell invasiveness, 8-TG with redox agent versus 6-TG-redox combination” value is given as “much more effective than a 6-TG-redox combination”. Also, the “screen of thiopurine analogs on invasive cell mobility” value in test [5] (in the presence of NO donor DETA/NO) is given as “most effectively inhibits”. In test [5] (only 8-TG 1 μM, FIG. 11), the “decline of invasive cell mobility over 5 days of continuous treatment” value is reported as around 60% and the “decline of invasive cell mobility within a day” value was around 10%. In test [6] (not shown), the “screen of 6-TP isomers on RhoA activity” value is “most effectively inhibits RhoA activity”.
